Results: PubChem BioAssay (NCI)
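The compound was tested at five concentrations on cells cultured in 96-well plates, with a 48-hour exposure period. The concentration for 50% growth inhibition is given as GI50. Definition used: TGI = concentration required for complete inhibition of growth.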

Legend:
Assay in all cases: NCI-60 cell line screen, 48 h
SK-MEL-28 melanoma = test system: SK-MEL-28 melanoma
MDA-N = test system: MDA-N
K-562 leukemia = test system: K-562 leukemia
HL-60(TB) leukemia = test system: HL-60(TB) leukemia
LOX IMVI melanoma = test system: LOX IMVI melanoma
HOP-92 NSCLC = test system: HOP-92 NSCLC
UO-31 renal = test system: UO-31 renal
HCC-2998 colon = test system: HCC-2998 colon
MDA-MB-231 breast = test system: MDA-MB-231 breast
ACHN renal = test system: ACHN renal
DLD-1 colon = test system: DLD-1 colon
SNB-78 CNS = test system: SNB-78 CNS
TK-10 renal = test system: TK-10 renal
UACC-62 melanoma = test system: UACC-62 melanoma

SMILES | TGI (SK-MEL-28 melanoma) [µM] | TGI (MDA-N) [µM] | TGI (K-562 leukemia) [µM] | TGI (HL-60(TB) leukemia) [µM] | TGI (LOX IMVI melanoma) [µM] | TGI (HOP-92 NSCLC) [µM] | TGI (UO-31 renal) [µM] | TGI (HCC-2998 colon) [µM] | TGI (MDA-MB-231 breast) [µM] | TGI (ACHN renal) [µM] | TGI (DLD-1 colon) [µM] | TGI (SNB-78 CNS) [µM] | TGI (TK-10 renal) [µM] | TGI (UACC-62 melanoma) [µM] | GI50 (TK-10 renal) [µM] | GI50 (UO-31 renal) [µM] | GI50 (K-562 leukemia) [µM] | GI50 (HL-60(TB) leukemia) [µM] | GI50 (MDA-MB-231 breast) [µM] | GI50 (ACHN renal) [µM]
CC(=O)OC/C=C/Cn1ncc(=O)[nH]c1=O | > 100 | > 100 | > 100 | > 100 | > 100 | > 100 | > 100 | > 100 | > 100 | > 100 | – | – | – | – | – | – | – | – | – | –
Nc1nncc2c1ccn2C1OC(CO)C(O)C1O (stereo not drawn) | > 100 | – | > 100 | > 100 | > 100 | > 100 | > 100 | > 100 | – | > 100 | > 100 | > 100 | > 100 | > 100 | – | – | – | – | – | –
Cc1ccc(S(=O)(=O)N/N=c2\c(C)c(C3=NS(=O)(=O)c4cc(S(N)(=O)=O)c(Cl)cc4N3)oc3c(Cl)cc(Cl)cc23)cc1 | > 100 | – | > 100 | > 100 | > 100 | > 100 | > 100 | > 100 | – | > 100 | > 100 | > 100 | > 100 | > 100 | – | – | – | – | – | –
CCOC(=O)Nc1cc2c(c(N)n1)N=C(c1ccccc1)[C@H](C)N2 | – | 0.000122 | – | < 0.0001 | 17.7 | 47.1 | 44.5 | – | – | 55 | 25.1 | – | 57.3 | 21.2 | 14.2 | 10.1 | – | – | – | –
O=C(CCl)NC(Cc1ccc(F)cc1)C(=O)O (stereo not drawn) | > 100 | – | > 100 | > 100 | > 100 | > 100 | > 100 | > 100 | – | – | > 100 | > 100 | – | > 100 | – | – | – | – | – | –
Oc1c2c(c3c4c1N=CC=4CCN=3)-c1c(Br)cc(Br)cc1CCN2 | 21.8 | – | 7.57 | 4.09 | 4.06 | 26.7 | 23.1 | 4.72 | – | – | 3.85 | 29.2 | – | 2.77 | – | – | – | – | – | –
CC(=O)O[C@H]1CC[C@@]2(C)C(=CC[C@@H]3[C@@H]2CC[C@]2(C)Nc4c(cnn4S(C)(=O)=O)C[C@@H]32)C1 | > 100 | > 100 | > 100 | 71.3 | – | > 100 | > 100 | > 100 | > 100 | – | – | – | – | > 100 | – | – | – | – | – | –
COc1cc(N/N=C/C#N)cc(OC)c1OC | > 10 | > 10 | > 10 | 5.64 | 3.24 | – | > 10 | > 10 | > 10 | > 10 | – | – | > 10 | > 10 | – | – | – | – | – | –
CC[C@H](Nc1nc(N)nc(C)c1C#N)c1nc2cccc(NCc3ccc(C(=O)NO)cc3)c2c(=O)n1-c1ccccc1 | – | – | > 100 | > 100 | – | – | – | – | 5.3 | 4.67 | – | – | 6.88 | – | 2.02 | – | 2.44 | 3.04 | 1.84 | 1.94
Cc1ccc([N+](=O)[O-])cc1NC(=O)C(=O)C(C(=O)c1ccccc1F)C1OC(=O)c2ccccc21 (stereo not drawn) | > 100 | – | > 100 | > 100 | 90.3 | > 100 | > 100 | 84.6 | – | > 100 | > 100 | > 100 | > 100 | > 100 | – | – | – | – | – | –
NC(=S)Nc1cc(Cl)ccc1Cl | > 100 | – | > 100 | > 100 | > 100 | > 100 | > 100 | > 100 | – | > 100 | > 100 | > 100 | > 100 | > 100 | – | – | – | – | – | –
N=c1nc2n(cc1F)[C@@H]1O[C@H](CO)[C@@H](O)[C@@H]1O2 | > 100 | > 100 | > 100 | > 40.9 | > 100 | > 65.1 | > 42.6 | > 100 | > 100 | > 34.4 | > 100 | > 100 | > 100 | > 100 | – | – | – | – | – | –
O=C1Nc2ccccc2S/C1=C\c1cccc(C(F)(F)F)c1 | > 100 | > 100 | > 100 | > 100 | > 100 | > 100 | > 100 | – | > 100 | > 100 | – | – | > 100 | > 100 | – | – | – | – | – | –
CC(C)OC(=O)C1=C(O)c2ccccc2S(=O)(=O)N1 | > 100 | – | > 100 | – | > 100 | – | – | > 100 | – | > 100 | > 100 | > 100 | > 100 | > 100 | – | – | – | – | – | –
C=C1CC[C@@H](Br)C(C)(C)[C@]12CCC(C)(O)C(Cl)C2 (stereo partly drawn) | 40.2 | – | 49.4 | 42.2 | 35.2 | 46.3 | 32 | 38.2 | – | 36.4 | 32.6 | > 100 | 78.4 | 41.4 | – | – | – | – | – | –
CCC1CN2CCC1CC2 (stereo not drawn) | > 100 | – | > 100 | > 100 | > 100 | – | > 100 | > 100 | – | – | > 100 | > 100 | – | > 100 | – | – | – | – | – | –
Cc1cc2c(cc1C)[n+](=O)c(C#N)c(Cl)n2[O-] | 42.5 | 41.6 | > 100 | 84.3 | 39.2 | 30.3 | 32.2 | 23.7 | 63.8 | 23.9 | – | – | 27.9 | 29.6 | – | – | – | – | – | –
O=C1Nc2ccccc2S/C1=C\c1ccccc1C(F)(F)F | > 100 | > 100 | – | > 100 | > 100 | > 100 | > 100 | – | > 100 | > 100 | – | – | > 100 | > 100 | – | – | – | – | – | –
CCCCCCCCCCCCCCCC(=O)OCC1CCCN2CCCCC12 (stereo not drawn) | > 100 | > 100 | > 100 | > 100 | > 100 | > 100 | > 100 | > 100 | > 100 | > 100 | – | – | > 100 | > 100 | – | – | – | – | – | –
CCOC(=O)[C@H]1Nc2c(cccc2[N+](=O)[O-])[C@H]2OCC[C@@H]12 | > 100 | – | > 100 | – | > 100 | – | > 100 | > 100 | – | > 100 | > 100 | > 100 | > 100 | > 100 | – | – | – | – | – | –
CC1CCC(O)(C(C)(C(=O)O)c2ccccc2)CC1 (stereo not drawn) | > 100 | > 100 | > 100 | > 100 | > 100 | > 100 | > 100 | – | > 100 | > 100 | – | – | > 100 | > 100 | – | – | – | – | – | –
O=C(O)NCc1ccccc1 (tested in a mixture with another compound) | > 100 | > 94.4 | > 77 | 48.9 | > 100 | 67.2 | 91.9 | 51.6 | > 72.2 | > 100 | – | – | > 87.5 | 37.2 | – | – | – | – | – | –
C/C(=N\Oc1cc(Cl)ncn1)c1ccccn1 | > 100 | > 100 | > 100 | – | > 100 | 74.3 | > 100 | 72.1 | 87.6 | > 100 | – | – | > 100 | > 100 | – | – | – | – | – | –
O=C(N/C(=C\c1cccc([N+](=O)[O-])c1)c1nc2[nH]c(=S)[nH]c(=O)c2[nH]1)c1ccccc1 | > 100 | – | > 100 | > 100 | > 100 | > 100 | > 100 | > 100 | – | > 100 | > 100 | > 100 | – | > 100 | – | – | – | – | – | –
